Measurements taken from patent publication US20150291565A1, “INDOLE COMPOUNDS AND THEIR USE AS ANTIMICROBIALS” (Memorial Sloan-Kettering Cancer Center, priority 2012, published 2015).
Converted amounts (≈) assume the structure as drawn. Read-outs that look alike come from different tables or passages of the source.

What was measured:
[1] = tested on: E. faecium ATCC 700221 (VRE); assay: Broth dilution MIC, E. faecium ATCC 700221; type: cell-based
K. pneumoniae ATCC 51503 = assay: Broth dilution MIC, K. pneumoniae ATCC 51503; type: cell-based; details: Klebsiella pneumoniae
MRSA = assay: Disk diffusion assay, zone of inhibition, MRSA; type: cell-based, Staphylococcus aureus; details: disk diffusion zone of inhibition
[2] = tested on: S. aureus ATCC 29213 (MSSA); assay: Broth dilution MIC, S. aureus ATCC 29213; type: cell-based; details: Staphylococcus aureus
[3] = tested on: S. pneumoniae ATCC 700674 (PRSP); assay: Broth dilution MIC, S. pneumoniae ATCC 700674; type: cell-based; details: Streptococcus pneumoniae
[4] = tested on: E. faecalis ATCC 29212 (VRE); assay: Broth dilution MIC, E. faecalis ATCC 29212; type: cell-based
E. coli ATCC 25922 = assay: Broth dilution MIC, E. coli ATCC 25922; type: cell-based; details: Escherichia coli
[5] = tested on: S. pneumoniae ATCC 6301 (PSSP); assay: Broth dilution MIC, S. pneumoniae ATCC 6301; type: cell-based; details: Streptococcus pneumoniae
C. albicans ATCC 14053 = assay: Broth dilution MIC, C. albicans ATCC 14053; type: cell-based; details: Candida albicans, ATCC14053; Table 1; range 64 down to 0.12 μg/ml
Experimental: In vitro Anti-bacterial & Anti-fungal Activity Assay: All test compounds were prepared as 6.4 mg/ml stock solutions in DMSO and further diluted according to the NCCLS M7-A6 (Page 5) document with sterile water or appropriate diluent. A working stock of 256 μg/ml was used to do 1:2 serial dilutions in 96-well plates. […] The inoculums were prepared by making a direct sterile water suspension of isolated colonies from 18 to 24 hr agar plates for all organisms (Mueller Hinton, Blood Agar or SDA plates). Each bacterial suspension was adjusted to read between 0.09 and 0.11 absorbance at 620 nm. […] These were further diluted 1/100 in appropriate broth for inoculating the 96-well plates. The C. albicans suspension was adjusted to read between 70 and 75% Transmittance at 530 nm and then diluted 1/500 in RPMI+MOPS broth. All aerobic bacterial and fungal plates were incubated for 18 hrs. at 35° C. […] Plates were read using a Beckman Automated Plate Reader at 650 nm. Readings were confirmed by visual examination of plates. (See Table 1, Table 2, Table 3, and Table 4). […] It is important to note that positive results against C. albicans are often indicative of broad spectrum antifungal activity, while negative results are not necessarily conclusory of a lack of activity against other fungus.

[6] = tested on: S. aureus ATCC 33591 (MRSA); assay: Broth dilution MIC, S. aureus ATCC 33591; type: cell-based; details: for MIC: Staphylococcus aureus
S. aureus BAA-39 (MDR) = assay: Broth dilution MIC, S. aureus BAA-39; type: cell-based; details: for MIC: Staphylococcus aureus, BAA39
E. faecium CT-26 = assay: Broth dilution MIC, E. faecium CT-26; type: cell-based; details: Enterococcus faecium
P. aeruginosa ATCC 9027 = assay: Broth dilution MIC, P. aeruginosa ATCC 9027; type: cell-based; details: Pseudomonas aeruginosa
M. smegmatis (mc2155) = assay: Disk diffusion assay, zone of inhibition, M. smegmatis; type: cell-based; details: disk diffusion zone of inhibition
K. pneumoniae ATCC 13883 = assay: Broth dilution MIC, K. pneumoniae ATCC 13883; type: cell-based; details: Klebsiella pneumoniae
E. coli ECM 1694 = assay: Broth dilution MIC, E. coli ECM 1694; type: cell-based; details: Escherichia coli
E. coli (ATCC 25922) = assay: Septicemia survival model in neutropenic CD1 mice, E. coli; type: in vivo; details: 10 mg/kg BID SC
[7] = Enterococcus faecium, Table 1, range 64 down to 0.12 μg/ml, read-out: MIC E. faecium ATCC 700221
[8] = Table 2, broth dilution MIC in ug/ml, read-out: MIC E faecium ATCC 700221 VRE
[9] = ATCC51503, Table 1, range 64 down to 0.12 μg/ml, read-out: MIC K. pneumoniae ATCC 51503
[10] = ATCC51503, Table 2, broth dilution MIC in ug/ml, read-out: MIC K pneumonia ATCC 51503
[11] = Table 1, range 64 down to 0.12 μg/ml, read-out: MIC S. aureus ATCC 29213
[12] = Table 2, broth dilution MIC in ug/ml, read-out: MIC S aureus ATCC 29213 MSSA
[13] = Table 1, range 64 down to 0.12 μg/ml, read-out: MIC S. pneumoniae ATCC 700674
[14] = Table 2, broth dilution MIC in ug/ml, read-out: MIC S pneumonia ATCC 700674 PRSP
[15] = Enterococcus faecalis, Table 1, range 64 down to 0.12 μg/ml, read-out: MIC E. faecalis ATCC 29212
[16] = Table 2, broth dilution MIC in ug/ml, read-out: MIC E faecalis ATCC 29212 VRE
[17] = ATCC 25921 / ATCC 25922, Table 2, broth dilution MIC in ug/ml, read-out: MIC E. coli ATCC 25921
[18] = ATCC25922, Table 1, range 64 down to 0.12 μg/ml, read-out: MIC E. coli ATCC 25922
[19] = ATCC6301, Table 1, range 64 down to 0.12 μg/ml, read-out: MIC S. pneumoniae ATCC 6301
[20] = ATCC6301, Table 2, broth dilution MIC in ug/ml, read-out: MIC S pneumonia ATCC 6301 PSSP
[21] = Table 1, range 64 down to 0.12 μg/ml, read-out: MIC S. aureus ATCC 33591
[22] = Table 2, broth dilution MIC in ug/ml, read-out: MIC S aureus ATCC 33591 MRSA
[23] = Table 1, range 64 down to 0.12 μg/ml, read-out: MIC S. aureus BAA-39
[24] = Table 2, broth dilution MIC in ug/ml, read-out: MIC S aureus BAA-39 MDR
[25] = CT26, Table 1, range 64 down to 0.12 μg/ml, read-out: MIC E. faecium CT-26
[26] = CT26, Table 2, broth dilution MIC in ug/ml, read-out: MIC E faecium CT-25
[27] = ATCC 9026 / ATCC 9027, Table 2, broth dilution MIC in ug/ml, read-out: MIC P aeruginosa ATCC 9026
[28] = ATCC9027, Table 1, range 64 down to 0.12 μg/ml, read-out: MIC P. aeruginosa ATCC 9027
[29] = ATCC13883, Table 1, range 64 down to 0.12 μg/ml, read-out: MIC K. pneumoniae ATCC 13883
[30] = ATCC13883, Table 2, broth dilution MIC in ug/ml, read-out: MIC K pneumonia ATCC 13883
[31] = ECM1694, Table 1, range 64 down to 0.12 μg/ml, read-out: MIC E. coli ECM 1694
[32] = ECM1694, Table 2, broth dilution MIC in ug/ml, read-out: MIC E. coli ECM 1693

MIC [1, 7]	MIC [1, 8]	MIC (K. pneumoniae ATCC 51503; [9])	MIC (K. pneumoniae ATCC 51503; [10])	MIC [2, 11]	MIC [2, 12]	MIC [3, 13]	MIC [3, 14]	MIC [4, 15]	MIC [4, 16]	MIC (E. coli ATCC 25922; [17])	MIC (E. coli ATCC 25922; [18])	MIC [5, 19]	MIC [5, 20]	MIC (C. albicans ATCC 14053)	MIC [6, 21]	MIC [6, 22]	MIC (S. aureus BAA-39 (MDR); [23])	MIC (S. aureus BAA-39 (MDR); [24])	Molecule	Zone Size MRSA (MRSA)	further results
> 64 µg/mL	64 µg/mL (≈ 178 µM)	> 64 µg/mL	64 µg/mL (≈ 178 µM)	8 µg/mL (≈ 22.3 µM)	8 µg/mL (≈ 22.3 µM)	> 64 µg/mL	64 µg/mL (≈ 178 µM)	> 64 µg/mL	64 µg/mL (≈ 178 µM)	32 µg/mL (≈ 89 µM)	32 µg/mL (≈ 89 µM)	32 µg/mL (≈ 89 µM)	32 µg/mL (≈ 89 µM)	> 64 µg/mL	8 µg/mL (≈ 22.3 µM)	8 µg/mL (≈ 22.3 µM)	8 µg/mL (≈ 22.3 µM)	8 µg/mL (≈ 22.3 µM)	c1cc(-c2cc3ccc(C4=NCCN4)cc3[nH]2)ccc1NC1CCNCC1 [SKI-6]	15 mm	MIC (E. faecium CT-26; [25]): 64 µg/mL (≈ 178 µM); MIC (E. faecium CT-26; [26]): 64 µg/mL (≈ 178 µM); MIC (P. aeruginosa ATCC 9027; [27]): 64 µg/mL (≈ 178 µM); MIC (P. aeruginosa ATCC 9027; [28]): > 64 µg/mL; Zone Size M. smegmatis (M. smegmatis (mc2155)): 16.3 mm; MIC (K. pneumoniae ATCC 13883; [29]): > 64 µg/mL; MIC (K. pneumoniae ATCC 13883; [30]): 64 µg/mL (≈ 178 µM); MIC (E. coli ECM 1694; [31]): 4 µg/mL (≈ 11.1 µM); MIC (E. coli ECM 1694; [32]): 4 µg/mL (≈ 11.1 µM)
≤ 0.12 µg/mL	0.12 µg/mL (≈ 0.279 µM)	8 µg/mL (≈ 18.6 µM)	8 µg/mL (≈ 18.6 µM)	0.5 µg/mL (≈ 1.16 µM)	0.5 µg/mL (≈ 1.16 µM)	≤ 0.12 µg/mL	0.12 µg/mL (≈ 0.279 µM)	0.25 µg/mL (≈ 0.581 µM)	0.25 µg/mL (≈ 0.581 µM)	2 µg/mL (≈ 4.65 µM)	2 µg/mL (≈ 4.65 µM)	≤ 0.12 µg/mL	0.12 µg/mL (≈ 0.279 µM)	8 µg/mL (≈ 18.6 µM)	0.5 µg/mL (≈ 1.16 µM)	0.5 µg/mL (≈ 1.16 µM)	0.5 µg/mL (≈ 1.16 µM)	0.5 µg/mL (≈ 1.16 µM)	c1cnc(-c2ccc(Nc3ccc(-c4cc5ccc(C6=NCCN6)cc5[nH]4)cc3)cc2)cn1 [SKI-10]	11 mm	MIC ([1]; Enterococcus faecium, Table 3, starting at 4 μg/ml, read-out: MIC E. faecium ATCC 700221): 0.12 µg/mL (≈ 0.279 µM); MIC ([2]; Table 3, starting at 4 μg/ml, read-out: MIC S. aureus ATCC 29213): 0.5 µg/mL (≈ 1.16 µM); MIC ([3]; Table 3, starting at 4 μg/ml, read-out: MIC S. pneumoniae ATCC 700674): 0.12 µg/mL (≈ 0.279 µM); MIC E. faecalis ATCC 29212 ([4]; Table 3, starting at 4 μg/ml): 0.25 µg/mL (≈ 0.581 µM); MIC ([5]; ATCC6301, Table 3, starting at 4 μg/ml, read-out: MIC S. pneumoniae ATCC 6301): 0.12 µg/mL (≈ 0.279 µM); MIC S. aureus ATCC 33591 ([6]; Table 3, starting at 4 μg/ml): 0.5 µg/mL (≈ 1.16 µM); MIC S. aureus BAA-39 (S. aureus BAA-39 (MDR); Table 3, starting at 4 μg/ml): 0.5 µg/mL (≈ 1.16 µM); MIC (E. faecium CT-26; [25]): ≤ 0.12 µg/mL; MIC (E. faecium CT-26; [26]): 0.12 µg/mL (≈ 0.279 µM); MIC (E. faecium CT-26; CT26, Table 3, starting at 4 μg/ml, read-out: MIC E. faecium CT-26): 0.12 µg/mL (≈ 0.279 µM); MIC (P. aeruginosa ATCC 9027; [27]): 16 µg/mL (≈ 37.2 µM); MIC (P. aeruginosa ATCC 9027; [28]): 16 µg/mL (≈ 37.2 µM); Zone Size M. smegmatis (M. smegmatis (mc2155)): 14.3 mm; MIC (K. pneumoniae ATCC 13883; [29]): 4 µg/mL (≈ 9.29 µM); MIC (K. pneumoniae ATCC 13883; [30]): 4 µg/mL (≈ 9.29 µM); MIC (E. coli ECM 1694; [31]): 0.25 µg/mL (≈ 0.581 µM); MIC (E. coli ECM 1694; [32]): 0.25 µg/mL (≈ 0.581 µM); MIC (E. coli ECM 1694; ECM1694, Table 3, starting at 4 μg/ml, read-out: MIC E. coli ECM 1694): 0.25 µg/mL (≈ 0.581 µM)
–	–	–	–	–	–	–	–	–	–	–	–	–	–	–	–	–	–	–	Gentamicin [reference compound]	–	Percent Survival Day 1 (E. coli (ATCC 25922)): 100%; Percent Survival Day 2 (E. coli (ATCC 25922)): 100%; Percent Survival Day 3 (E. coli (ATCC 25922)): 80%; Percent Survival Day 4 (E. coli (ATCC 25922)): 60%; Percent Survival Day 5 (E. coli (ATCC 25922)): 60%; Percent Survival Day 6 (E. coli (ATCC 25922)): 60%; Percent Survival Day 7 (E. coli (ATCC 25922)): 60%
